Measured values as given in publication PMC8741604 (Translational Oncology, 2022).
Each block holds one molecule with its values, some of them ahead of it. Where a SMILES comes first, the peptide text is derived from it.

Assays:
[1] = target: T1, human PD-L1 (Homo sapiens, UniProt Q9NZQ7); assay: Bio-layer interferometry binding to PD-L1; settings: for Affinity for PD-L1 in words: bio-layer interferometry
[2] = tested on: CT26 murine colon carcinoma cells; assay: MTT cell viability without T cells; assay type: cell-based
[3] = tested on: CT26 murine colon carcinoma tumor in BALB/c mice; assay: Subcutaneous CT26 syngeneic tumor model, without pre-immunization; assay type: in vivo, mouse; settings: PD-L1ip3 peptide alone, no pre-immunization, vs untreated CT26
[4] = tested on: CT26 murine colon carcinoma tumor in BALB/c mice; assay: Subcutaneous CT26 syngeneic tumor model, pre-treated with CT26 cell lysate; assay type: in vivo, mouse; settings: PD-L1ip3 peptide only
[5] = target: T1, human PD-L1; settings: cited from earlier work

T1 sequence (Q9NZQ7 19-290): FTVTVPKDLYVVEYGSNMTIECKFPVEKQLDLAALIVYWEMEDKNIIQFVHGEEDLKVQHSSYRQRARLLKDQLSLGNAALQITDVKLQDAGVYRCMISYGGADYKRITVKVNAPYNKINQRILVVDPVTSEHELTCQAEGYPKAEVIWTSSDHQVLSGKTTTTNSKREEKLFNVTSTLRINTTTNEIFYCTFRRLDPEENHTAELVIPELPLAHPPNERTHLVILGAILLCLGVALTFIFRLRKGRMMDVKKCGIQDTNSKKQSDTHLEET

Affinity for PD-L1 relative to natural partner PD-1 ([1]; KD by BLI compared with literature PD-1 KD): only a few times weaker
Affinity for PD-L1 in words [1]: affinity in the micromolar range
Molecule: CC[C@H](C)[C@H](NC(=O)[C@H](CC(C)C)NC(=O)[C@@H]1CCCN1C(=O)[C@H](CCCCN)NC(=O)[C@H](CC(C)C)NC(=O)[C@H](CCCNC(=N)N)NC(=O)[C@@H](NC(=O)CN)[C@@H](C)O)C(=O)N[C@H](C(=O)N[C@@H](CS)C(=O)N[C@H](C(=O)N[C@@H](CCC(N)=O)C(=O)N[C@@H](Cc1c[nH]c2ccccc12)C(=O)N1CCC[C@H]1C(=O)NCC(=O)N[C@@H](CC(C)C)C(=O)O)C(C)C)[C@@H](C)CC [PD-L1ip3] (H-GTRLKPLIICVQWPGL-OH)
Cytotoxicity of the peptide (summary statement) ([2]; peptide alone, CT26 cells): negligible cytotoxicity
Tumor growth in words, peptide alone [3]: neither transduction of a scrambled sequence peptide gene by the adenovirus vector (Ad-PD-L1ip3SC) nor PD-L1ip3 in peptide form alone showed a statistically significant change in tumor growth
Tumor growth in words, peptide alone, pre-immunized [4]: minimal effect on tumor growth

Affinity for PD-L1 in words [1]: very weak binding
Molecule: VLIKIPWLRLPGCGTQ [PD-L1ip3SC]
CT26 cell viability at 72 h, 10 µg/ml ([2]; MTT, 10 µg/ml, 72 h, not significantly different from PBS): slight decrease of cell viability

B1: murine PD-1: murine PD-1, literature affinity for human PD-L1 (protein, UniProt Q02242 25-288, looked up)
Programmed cell death protein …: LEVPNGPWRSLTFYPAWLTVSEGANATFTCSLSNWSEDLMLNWNRLSPSNQTEKQAAFCNGLSQPVQDARFQIIQLPNRHDFHMNILDTRRNDSGIYLCGAISLHPKAKIEESPGAELVVTERILETSTRYPSPSPKPEGRFQGMVIGIMSALVGIPVLLLLAWALAVFCSTSMSEARGAGSKDDTLKEEPSAAPVPSVAYEELDFQGREKTPELPTACVHTEYATIVFTEGLGASAMGRRGSADGLQGPRPPRHEDGHCSWPL
Affinity of murine PD-1 for human PD-L1 versus human PD-1 [5]: shows similarity to that of human PD-1 for human PD-L1
